The record followed here is patent US9341616B2, “Sweet taste receptor chimeric proteins and use thereof” (AJINOMOTO CO., INC., priority 2014, dated 2016).

Like-named read-outs stand apart in the source and are kept apart here. Residues, ends and D or L forms follow the SMILES beside them.

The assay deals with h-mT1R2-481/T1R3mosaicA (UniProt Q8TE23+Q925D8, A12W/A31M/A537S/A558R/A564V/A568V/A570T/A588V/A645S/A649T/A658V/A698V/A702T/A782V/A793V/A807V/C582S/C678S/E16H/E530V/E534N/E542M/E548N/E725V/F14L/F29L/F525Y/F541I/F612A/F622V/F665L/F695L/G696N/G701T/H484Y/H528R/H728R/I36V/I481V/I486P/I490V/I510L/I518V/I595M/I60P/I617V/I643V/I645L/I692L/I695G/I706V/I740A/I803L/K30R/K504M/K555R/K565R/K626T/K714N/K818R/K827G/L17P/L521P/L560F/L571I/L578I/L610P/L631F/L636F/L639V/L684P/L688V/L702I/L734M/L735F/L800F/L823M/L825Q/M19T/M492I/M616G/M644L/M682V/M690V/M744T/M748V/N52R/N540G/N541S/N547G/N58S/N63T/N675D/N721H/P545F/P561R/P564S/P61V/P638T/P824S/Q32K/Q536L/Q53S/Q546K/Q550E/Q555R/Q56R/Q611L/Q676H/Q757R/Q795R/Q831P/R498S/R632Q/R667S/S22P/S45E/S501P/S547N/S550A/S576L/S595F/S610P/S628F/S635P/S637R/S663R/S670G/S679G/S681F/S703N/S717H/S727G/S784D/S804G/T46A/T50G/T529S/T542A/T549I/T609V/T629S/T642S/T663I/T694M/T705I/T706G/T716I/T813A/V508I/V512P/V557A/V573A/V584A/V585L/V613L/V617M/V673M/V687A/V691A/V694A/V718L/V718M/V723A/V729T/V738A/V741L/V774I/V791M/V805L/V812A/V821L/W599R/W676R/W824R/Y533F/Y615F/Y671F/Y680C/Y769S/Y783H/Y794L). Conditions: HEK293E cells.
Sequence of h-mT1R2-481/T1R3mosaicA (Q8TE23 with tags, fused parts or gaps with the stated changes limits assumed): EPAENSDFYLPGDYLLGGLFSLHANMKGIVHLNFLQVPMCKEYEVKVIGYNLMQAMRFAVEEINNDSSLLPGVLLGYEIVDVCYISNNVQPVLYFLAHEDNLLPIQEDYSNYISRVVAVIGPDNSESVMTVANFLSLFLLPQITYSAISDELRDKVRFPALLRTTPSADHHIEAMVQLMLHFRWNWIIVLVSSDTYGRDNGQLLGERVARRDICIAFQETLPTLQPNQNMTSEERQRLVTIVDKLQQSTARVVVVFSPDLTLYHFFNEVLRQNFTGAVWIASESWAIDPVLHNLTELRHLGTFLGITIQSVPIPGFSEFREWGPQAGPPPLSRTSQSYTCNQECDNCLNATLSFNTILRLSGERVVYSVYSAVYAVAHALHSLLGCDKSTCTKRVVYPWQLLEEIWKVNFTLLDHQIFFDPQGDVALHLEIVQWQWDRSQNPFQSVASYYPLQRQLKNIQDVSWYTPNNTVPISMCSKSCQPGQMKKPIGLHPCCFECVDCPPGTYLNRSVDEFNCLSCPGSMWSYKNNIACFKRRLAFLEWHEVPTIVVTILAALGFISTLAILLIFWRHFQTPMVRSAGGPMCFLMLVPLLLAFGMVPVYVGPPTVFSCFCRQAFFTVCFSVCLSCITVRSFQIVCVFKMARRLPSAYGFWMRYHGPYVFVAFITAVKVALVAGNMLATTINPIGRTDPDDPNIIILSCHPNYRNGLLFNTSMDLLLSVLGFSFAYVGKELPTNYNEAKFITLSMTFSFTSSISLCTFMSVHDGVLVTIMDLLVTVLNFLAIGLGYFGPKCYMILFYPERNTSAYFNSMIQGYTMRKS
Sequence of h-mT1R2-481/T1R3mosaicA (Q925D8 with tags, fused parts or gaps with the stated changes limits assumed): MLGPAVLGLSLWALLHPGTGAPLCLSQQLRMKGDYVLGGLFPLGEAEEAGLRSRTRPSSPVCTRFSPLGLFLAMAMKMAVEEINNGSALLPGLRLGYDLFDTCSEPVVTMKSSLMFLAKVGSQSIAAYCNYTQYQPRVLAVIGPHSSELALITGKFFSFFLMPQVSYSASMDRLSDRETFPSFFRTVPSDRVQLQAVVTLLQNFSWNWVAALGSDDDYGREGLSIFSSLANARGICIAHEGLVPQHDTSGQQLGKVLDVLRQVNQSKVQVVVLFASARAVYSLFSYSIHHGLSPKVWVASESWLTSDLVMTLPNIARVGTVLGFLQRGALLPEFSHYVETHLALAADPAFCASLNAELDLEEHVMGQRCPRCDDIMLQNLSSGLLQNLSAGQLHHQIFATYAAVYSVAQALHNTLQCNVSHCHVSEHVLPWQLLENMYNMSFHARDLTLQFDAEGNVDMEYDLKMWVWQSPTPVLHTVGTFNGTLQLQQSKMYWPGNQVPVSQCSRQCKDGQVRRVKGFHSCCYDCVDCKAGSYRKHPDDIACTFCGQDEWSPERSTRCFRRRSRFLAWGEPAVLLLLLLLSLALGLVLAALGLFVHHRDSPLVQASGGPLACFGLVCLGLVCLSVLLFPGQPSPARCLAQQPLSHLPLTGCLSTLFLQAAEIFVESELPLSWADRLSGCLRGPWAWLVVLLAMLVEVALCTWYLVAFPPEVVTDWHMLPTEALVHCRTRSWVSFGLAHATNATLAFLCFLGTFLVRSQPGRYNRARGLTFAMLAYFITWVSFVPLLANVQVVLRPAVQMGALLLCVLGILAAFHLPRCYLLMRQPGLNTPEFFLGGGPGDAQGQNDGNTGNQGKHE

Setting [1] is: Table 3, genes h-mT481/T3mA (h-mT1R2-481, T1R3mA).
Setting [2] is: Table 4, genes h-mT481/T3mA (h-mT1R2-481, T1R3mA).
[3] abbreviates: Table 5, genes h-mT481/T3mA (h-mT1R2-481, T1R3mA).
Where [4] appears, read: Table 6, genes h-mT481/T1Rm3A (h-mT1R2-481, T1R3mA).

Regarding `CC1=CC(=O)NS(=O)(=O)O1` [Acesulfame K, acesulfame potassium], the S/N runs as follows: under setting [1], 4.7; under setting [2], 5.4; under setting [3], 4.7; under setting [4], 6.0.
In the case of `COC(=O)[C@H](Cc1ccccc1)NC(=O)[C@H](CC(=O)O)NCCCc1ccc(OC)c(O)c1` [Advantame, advantame], the S/N by setting is: under setting [1], 10.6; under setting [2], 11.3; under setting [3], 10.6; under setting [4], 10.5.
Consider `COC(=O)[C@H](Cc1ccccc1)NC(=O)[C@@H](N)CC(=O)O` [Aspartame, aspartame] (HELM PEPTIDE1{D.F.[CO[*:1]]}$$$$V2.0), for which the S/N worked out at 7.0 under setting [1], 9.4 under setting [2], 7.0 under setting [3] and 7.3 under setting [4].
With `COc1ccc(CCC(=O)c2c(O)cc(O[C@@H]3O[C@H](CO)[C@@H](O)[C@H](O)[C@H]3O[C@@H]3O[C@@H](C)[C@H](O)[C@@H](O)[C@H]3O)cc2O)cc1O` [NHDC, neohesperidin dihydrochalcone], the S/N is, setting by setting: under setting [3], 4.3; under setting [4], 5.9.
Turning to `COC(=O)[C@H](Cc1ccccc1)NC(=O)[C@H](CC(=O)O)NCCC(C)(C)C` [Neotame, neotame], the S/N is on record as 8.8 under setting [1], 9.4 under setting [2], 8.8 under setting [3] and 8.9 under setting [4].
On to `C[C@H](NC(=Nc1ccc(C#N)cc1)NCC(=O)O)c1ccccc1` [SC-45647, [3-[(S)-1-phenylethyl]-2-(4-cyanophenyl)guanidino]acetic acid], for which the S/N by setting is: under setting [1], 8.4; under setting [2], 7.9; under setting [3], 8.4; under setting [4], 8.7.
For `O=C1NS(=O)(=O)c2ccccc21.[Na]` [Saccharin Na, sodium saccharin], the S/N under setting [1] was determined as 5.6, the S/N under setting [2] was 5.6, the S/N under setting [3] was found to be 5.6 and the S/N under setting [4] worked out at 6.9.
Consider `OC[C@H]1O[C@H](O[C@]2(CCl)O[C@H](CCl)[C@@H](O)[C@@H]2O)[C@H](O)[C@@H](O)[C@H]1Cl` [Sucralose, sucralose], for which the S/N was found to be 7.8 under setting [1], 9.0 under setting [2], 7.8 under setting [3] and 7.0 under setting [4].
For `OC[C@H]1O[C@@](CO)(O[C@H]2O[C@H](CO)[C@@H](O)[C@H](O)[C@H]2O)[C@@H](O)[C@@H]1O` [Sucrose, sucrose], the S/N runs as follows: under setting [1], 3.4; under setting [2], 3.9; under setting [3], 3.4; under setting [4], 3.8.
